“Also recorded” adds a separate entry of the source.

A short description of experiment [1]: OxiSelect HORAC Activity Assay Kit: antioxidant activity against hydroxy radicals (cell-free, Fenton's reagent). The class given is biochemical. The settings on record: for antioxidant action against hydroxy radicals (fluorescence intensity): every 5 minutes for 60 minutes; for Antioxidant Activity Against Hydroxy Radicals (NetAUC): AUCsample minus AUCblank, 60 minutes. How it is done:
Antioxidant activity against hydroxy radicals was measured with OxiSelect™ HORAC Activity Assay Kit (Cell Biolabs, San Diego, Calif.) in accordance with the specifications. A fluorescent probe solution was added to a sample solution, the mixture was incubated at 37° C. for 30 minutes, and a hydroxy radical initiator (H2O2) and Fenton's reagent were added, followed by the measurement of a fluorescence intensity (Ex/Em=485 nm/538 nm) based on the oxidation of the fluorescent probe by hydroxy radicals via hydrogen atom transfer (HAT). In the presence of hydroxy radicals, the fluorescence of the fluorescent probe is quenched, and the quenching is inhibited when antioxidant activity is present. As the sample solution, 0.01 μM to 1 μM HRG solutions, or 50 μM to 100 μM GA solutions were used. A. For each of the 50 μM to 100 μM gallic acid (GA) sample solutions, their fluorescence intensities (Ex/Em=485 nm/538 nm) were measured every 5 minutes for 60 minutes in accordance with the above-mentioned measurement method. The fluorescence intensities of GA and a blank were plotted on the vertical axis, and the measurement times were plotted on the horizontal axis. […] B. For each of the 0 μM to 1 μM HRG sample solutions, their fluorescence intensities (Ex/Em=485 nm/538 nm) were measured every 5 minutes for 60 minutes in accordance with the above-mentioned measurement method. The fluorescence intensities of HRG and a blank were plotted on the vertical axis, and the measurement times were plotted on the horizontal axis. […] The difference between the area under the curve of the fluorescence intensity of GA or HRG (AUCsample) and the area under the curve of the blank (AUCblank) was measured every 5 minutes for 60 minutes after the initiation of reaction, and NetAUC was calculated. […] In this Example, the histidine-rich peptide (SEQ ID NO: 10) was investigated for its antioxidant action against hydroxy radicals by the same technique as that of Example 1. A control peptide (SEQ ID NO: 11) was similarly investigated. A. The fluorescent probe solution was added to each solution of HRG (1 μM), the histidine-rich peptide (6 μM), or the control peptide (6 μM), and antioxidant activity against hydroxy radicals was measured by the same technique as that of Example 1. […] B. The fluorescent probe solution was added to histidine-rich peptide solutions (0.1 μM to 10 μM), and the resultant mixtures were measured for their antioxidant activity against hydroxy radicals by the same technique as that of Example 1. […] The difference between the area under the curve of the fluorescence intensity of the histidine-rich peptide or HRG (AUCsample) and the area under the curve of the blank (AUCblank) was measured every 5 minutes for 60 minutes after the initiation of reaction to calculate NetAUC.

Experiment [2] is described as follows: OxiSelect ORAC Activity Assay Kit: antioxidant activity against peroxy radicals (AAPH). The class given is biochemical. The settings on record: for antioxidant action against peroxy radicals (fluorescence intensity): every 5 minutes for 60 minutes; for Antioxidant Activity Against Peroxy Radicals (NetAUC): AUCsample minus AUCblank, 60 minutes. How it is done:
In this Example, HRG was investigated for its antioxidant action against peroxy radicals. As a positive control, Trolox was used. Antioxidant activity against peroxy radicals was measured with OxiSelect™ ORAC Activity Assay Kit (Cell Biolabs, San Diego, Calif.) in accordance with the specifications. The fluorescent probe solution was added to a sample solution, the mixture was incubated at 37° C. for 30 minutes, and added with 2,2′-azobis-(2-methylpropionamidine) dihydrochloride (AAPH), followed by immediate measurement of fluorescence intensity (Ex/Em=485 nm/538 nm). In the presence of peroxy radicals, the fluorescence of the fluorescent probe is quenched, and the quenching is inhibited when antioxidant activity is present. A. For each of 0 μM to 6.25 μM Trolox sample solutions, their fluorescence intensities (Ex/Em=485 nm/538 nm) were measured every 5 minutes for 60 minutes in accordance with the above-mentioned measurement method. […] B. For each of 0 μM to 1 μM HRG sample solutions, their fluorescence intensity (Ex/Em=485 nm/538 nm) were measured every 5 minutes for 60 minutes in accordance with the above-mentioned measurement method. […] The difference between the area under the curve of the fluorescence intensity of Trolox or HRG (AUCsample) and the area under the curve of the blank (AUCblank) was measured every 5 minutes for 60 minutes after the initiation of reaction to calculate NetAUC. […] In this Example, the histidine-rich peptide was investigated for its antioxidant action against peroxy radicals in the same manner as in Example 4. A. The fluorescent probe solution was added to each solution of HRG (1 μM), the histidine-rich peptide (6 μM), or the control peptide (6 μM), and antioxidant activity against peroxy radicals was measured by the same technique as that of Example 4. […] B. The fluorescent probe solution was added to histidine-rich peptide solutions (0.1 μM to 10 μM), and antioxidant activity against peroxy radicals was measured by the same technique as that of Example 4. […] The difference between the area under the curve of the fluorescence intensity of the histidine-rich peptide or HRG (AUCsample) and the area under the curve of the blank (AUCblank) was measured every 5 minutes for 60 minutes after the initiation of reaction to calculate NetAUC.

The nature of experiment [3]: Calorimetry (MicroCal iTC200) metal ion-binding property, divalent metal ions. The settings on record: for binding to divalent metal ions: iron, copper, cobalt, zinc, nickel, FIG. 4A-6B. As to the method:
(§1) In this Example, in order to investigate the binding properties of HRG to metal ions serving as essential factors in Fenton' s reaction, an experiment was performed using calorimetry. MicroCal iTC200 was used as a calorimeter, and binding properties between various metals (iron, copper, cobalt, zinc, and nickel) and samples were measured in accordance with the specifications.

Experiment [4] is described as follows: Calorimetry (MicroCal iTC200) metal ion-binding property, trivalent iron ions. The following applies: FIG. 4A, 5A, 6A. As to the method: as §1
Experiment [5] is described as follows: DetectX Superoxide Dismutase (SOD) Colorimetric Activity Kit: antioxidant action against superoxide (xanthine/xanthine oxidase). The class given is biochemical. The settings on record: 0.01 μM to 1 μM; room temperature 20 minutes; absorbance 450 nm; FIG. 9A-B. The text has this: In this Reference Example, the antioxidant action of HRG against superoxide was investigated through use of DetectX Superoxide Dismutase (SOD) Colorimetric Activity Kit (Arbor Assays, Ann Arbor, Mich.). HRG used was plasma-derived HRG generated by the method described in Example 1. Superoxide anion (O^2−) is generated by a xanthine/xanthine oxidase (XOD) system, and is detected through use of a chromogen solution. Superoxide dismutase (SOD) is a metalloenzyme that catalyzes the conversion of O^2− into an oxygen molecule and hydrogen peroxide. The presence of SOD decreases the O^2− concentration to decrease a dye signal.
In accordance with the specifications, xanthine oxidase, and a substrate were added to 0.01 μM to 1 μM HRG solutions, and the mixtures were incubated at room temperature for 20 minutes. After that, the reaction solutions were each measured for its absorbance at a wavelength of 450 nm. As a control, measurement was similarly performed for SOD.

Experiment [6] is described as follows: OxiSelect Catalase Activity Assay Kit: catalase-like activity. The class given is biochemical. The following applies: 0.01 μM to 1 μM; FIG. 10A-B. How it is done: In this Reference Example, whether HRG had catalase-like activity was investigated through use of OxiSelect™ Catalase Activity Assay Kit (Cell Biolabs, San Diego, Calif.). HRG used was plasma-derived HRG generated by the method described in Example 1. A prescribed amount of hydrogen peroxide was allowed to react with 0.01 μM to 1 μM HRG. Next, the remaining hydrogen peroxide was incubated in the presence of HRP with a probe (colorimetric measurement: DHBS+AAP; and fluorescence measurement: ADHP (10-Acetyl-3,7-dihydroxyphenoxazine)) at 37° C. for 30 minutes, and the resulting fluorescence intensity (Ex/Em=544 nm/590 nm) was measured. As a control, measurement was similarly performed for catalase.

Where [7] appears, read: overall conclusion from the results.

Consider `O=C(O)c1cc(O)c(O)c(O)c1` [GA, gallic acid, reference compound], for which the “antioxidant action against hydroxy radicals (fluorescence intensity)” value in experiment [1] (50 μM to 100 μM sample solutions, FIG. 2A) was “antioxidant action against hydroxy radicals was recognized in a manner dependent on the concentration of GA”.

In the case of `Cc1c(C)c2c(c(C)c1O)CCC(C)(C(=O)O)O2` (stereo not drawn) [Trolox, reference compound], in experiment [2] (0 μM to 6.25 μM sample solutions, FIG. 7A), the “antioxidant action against peroxy radicals (fluorescence intensity)” value is “antioxidant action against peroxy radicals was recognized in a manner dependent on the concentration of Trolox”.

As to “GAAPAGAAPA (Standard peptide) [control peptide, reference compound]”, the “antioxidant activity against hydroxy radicals” value in experiment [1] (6 μM, FIG. 3A) is on record as “no antioxidant action”. For the same molecule, in experiment [3], the “binding to divalent metal ions” value is “did not bind to any of the various metal ions”. Moreover, the “binding to trivalent iron ions” value in experiment [4] is “did not bind to any of the various metal ions”. In experiment [2] (6 μM, FIG. 8A), the “antioxidant activity against peroxy radicals” value is “no antioxidant action”.

With GHHPHGHHPH [histidine-rich peptide], the “antioxidant activity against hydroxy radicals” value in experiment [1] (0.1 μM to 10 μM, FIG. 3B) was “potent antioxidant activity in a concentration-dependent manner”; in experiment [1] (6 μM, FIG. 3A), “potent antioxidant actions”; in experiment [1] (setting [7]), “potent antioxidant activity against hydroxy radicals”. The “Antioxidant Activity Against Hydroxy Radicals (NetAUC)” value in experiment [1] (FIG. 3C) is “potent antioxidant action against hydroxy radicals”. Moreover, the “binding to divalent metal ions” value in experiment [3] was “bind to divalent metal ions (iron, copper, cobalt, zinc, and nickel)”. Besides, in experiment [4], the “binding to trivalent iron ions” value was “does not bind to trivalent iron ions”. For the same molecule, the “antioxidant activity against peroxy radicals” value is “antioxidant activity in a slightly concentration-dependent manner” in experiment [2] (0.1 μM to 10 μM, FIG. 8B) and “an antioxidant action, which was slightly weaker” in experiment [2] (6 μM, FIG. 8A). For the same molecule, in experiment [2] (FIG. 8C), the “Antioxidant Activity Against Peroxy Radicals (NetAUC)” value is “weak as compared to HRG”.

B1: HRG: Histidine-rich glycoprotein, plasma protein of 507 amino acids (SEQ ID NO: 1), generated from human plasma as a starting material (protein, listed as Homo sapiens)
chain: VSPTDCSAVEPEAEKALDLINKRRRDGYLFQLLRIADAHLDRVENTTVYYLVLDVQESDCSVLSRKYWNDCEPPDSRRPSEIVIGQCKVIATRHSHESQDLRVIDFNCTTSSVSSALANTKDSPVLIDFFEDTERYRKQANKALEKYKEENDDFASFRVDRIERVARVRGGEGTGYFVDFSVRNCPRHHFPRHPNVFGFCRADLFYDVEALDLESPKNLVINCEVFDPQEHENINGVPPHLGHPFHWGGHERSSTTKPPFKPHGSRDHHHPHKPHEHGPPPPPDERDHSHGPPLPQGPPPLLPMSCSSCQHATFGTNGAQRHSHNNNSSDLHPHKHHSHEQHPHGHHPHAHHPHEHDTHRQHPHGHHPHGHHPHGHHPHGHHPHGHHPHCHDFQDYGPCDPPPHNQGHCCHGHGPPPGHLRRRGPGKGPRPFHCRQIGSVYRLPPLRKGEVLPLPEANFPSFPLPHHKHPLKPDNQPFPQSVSESCPGKFKSGFPQVSMFFTHTFPK
On to B1, for which the “antioxidant action against hydroxy radicals (fluorescence intensity)” value in experiment [1] (0 μM to 1 μM sample solutions, FIG. 2B) is reported as “antioxidant action against hydroxy radicals was recognized in a manner dependent on the concentration of HRG”. Further, the “antioxidant activity against hydroxy radicals” value is on record as “potent antioxidant actions” in experiment [1] (1 μM, FIG. 3A) and “potent antioxidant activity against hydroxy radicals” in experiment [1] (setting [7]). Further, the “Antioxidant Activity Against Hydroxy Radicals (NetAUC)” value is listed as “potent antioxidant action against hydroxy radicals” in experiment [1] (FIG. 3C) and “potent antioxidant action against hydroxy radicals” in experiment [1] (various concentrations, FIG. 2C). The “number of divalent metal ions bound per molecule” value in experiment [3] (FIG. 4A) was “a large number of divalent metal ions bind to one molecule of HRG”. The “binding to divalent metal ions” value in experiment [3] is “bound to divalent metal ions (iron, copper, cobalt, zinc, and nickel)”. Also, in experiment [4], the “binding to trivalent iron ions” value is recorded as “did not bind to trivalent iron ions”. In addition, the “antioxidant action against peroxy radicals (fluorescence intensity)” value in experiment [2] (0 μM to 1 μM sample solutions, FIG. 7B) was “antioxidant action against peroxy radicals was recognized in a manner dependent on the concentration of HRG”. Moreover, the “antioxidant activity against peroxy radicals” value in experiment [2] (1 μM, FIG. 8A) is given as “potent antioxidant action”; in experiment [2] (setting [7]), “showed an antioxidant activity against peroxy radicals”. In addition, the “Antioxidant Activity Against Peroxy Radicals (NetAUC)” value was “had an antioxidant action against peroxy radicals” in experiment [2] (FIG. 8C) and “has an antioxidant action against peroxy radicals” in experiment [2] (various concentrations, FIG. 7C). Moreover, the “scavenging activity / antioxidant action against superoxide” value in experiment [5] is recorded as “no scavenging activity against superoxide; also recorded: hardly showed an antioxidant action against superoxide; also recorded: no antioxidant action against superoxide”. In experiment [6], the catalase-like activity result was “no catalase-like activity”.
